Assay results: ChEMBL document CHEMBL1201862, “PubChem BioAssay data set” (2004)
Active and inactive are the calls of the source.

Experiments:
[1] = molecular target: Hexokinase (Trypanosoma brucei, UniProt Q38C41); assay: Confirmation assay for inhibitors of Trypanosoma brucei hexokinase 1-Analogue-first series. [Related pubchem assays (depositor defined):AID1430, AID1632, AID2516, AID2560, AID2579, AID2600, AID449725, AID492951]; type: functional
[2] = molecular target: Mu-type opioid receptor (Homo sapiens, UniProt P35372); assay: SAR Analysis of Antagonists of the MOR Receptor using an Image-Based Assay - Set 3. [Related pubchem assays (depositor defined):AID1777, AID1785, AID1786, AID1966, AID2133, AID2136, AID2284, AID2285, AID2420]; type: functional
[3] = molecular target: T1, Kappa-type opioid receptor (Homo sapiens, UniProt P41145); assay: SAR analysis of small molecule antagonists of the kappa opioid receptor via a luminescent beta-arrestin assay - Set 3. [Related pubchem assays (depositor defined):AID1777, AID1778, AID1785, AID1786, AID1966, AID2133, AID2136, AID2285, AID2495]; type: functional
[4] = molecular target: T1, Kappa-type opioid receptor; assay: SAR analysis of Antagonists of the Kappa Opioid Receptor (KOR) using an Image-Based Assay - Set 3. [Related pubchem assays (depositor defined):AID1777, AID1785]; type: functional
[5] = molecular target: Delta-type opioid receptor (Homo sapiens, UniProt P41143); assay: SAR Analysis of Antagonists of the DOR Receptor using an Image-Based Assay - Set 3. [Related pubchem assays (depositor defined):AID1777, AID1785]; type: functional;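 further: U2OS cells expressing DOR1 and beta-arrestin GFP stimulated with 100 nM SNC80; imaging of GFP-tagged beta-arrestin moving into spots after receptor activation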
[6] = molecular target: T2, Fatty acid synthase (Homo sapiens, UniProt P49327); assay: FAS thioesterase domain inhibitors, dose response, biochemical, endpoint fluorescence intensity, uHTS hits (AID 624327); type: functional;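 further: fluorescence from hydrolysis of an O-methyl fluorescein acyl ester substrate by the enzyme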
[7] = molecular target: T2, Fatty acid synthase; assay: FAS thioesterase domain inhibitors, dose response, biochemical, kinetic fluorescence intensity (AID 624326); type: functional;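 further: rate of fluorescence rise from hydrolysis of a fluorogenic O-methyl fluorescein ester substrate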
[8] = molecular target: G-protein coupled receptor 55 (Homo sapiens, UniProt Q9Y2T6); assay: GPR55 antagonists blocking LPI-driven arrestin recruitment, primary screen, imaging, U2OS, beta-arrestin-GFP, LPI agonist (AID 2013); type: functional;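 further: antagonist potency measured as reduced agonist-driven arrestin aggregation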
[9] = molecular target: T3, E3 ubiquitin-protein ligase XIAP (Homo sapiens, UniProt P98170); assay: XIAP antagonists, biochemical, IAP family, fluorescence polarization (AID 1018); type: functional
[10] = molecular target: T3, E3 ubiquitin-protein ligase XIAP; assay: Counter Screen using XIAP-Bir3 for Chemical Antagonists of Bir1/2 domains of IAP-family anti-apoptotic proteins. [Related pubchem assays (depositor defined):AID1018, AID1449, AID1514, AID1638, AID1749, AID1750, AID488957, AID488963]
[11] = system: HEK293; assay: cells; type: functional, cell-based; details: Homo sapiens
[12] = system: HEK293; assay: cells; type: functional, cell-based; details: Homo sapiens; remark: listed apart in the source
[13] = inhibitors of SNCA 5'UTR-driven reporter translation, confirmation, H4 neuroglioma cells, luminescence (AID 1988); type: functional, cell-based
[14] = system: Vero; assay: cells; type: functional, Chlorocebus sabaeus; details: Chlorocebus sabaeus, Vero
[15] = system: HEK293; assay: cells; type: functional, cell-based; details: Homo sapiens; remark: listed apart in the source
[16] = system: INS1; assay: beta cell apoptosis inhibitors, cytokine rescue, dose response, luminescence, retest (AID 449756); type: functional, cell-based; details: Rattus norvegicus;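 further: cell death triggered by IL-1 beta plus TNF-alpha plus IFN-gamma mixture; protective hits raise ATP signal compared with cytokine alone wells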
[17] = molecular target: Nucleotide-binding oligomerization domain-containing protein 2 (Homo sapiens, UniProt Q9HC29); assay: NOD2 signaling inhibitors, cell-based, luminescence, uHTS, HEK293 (AID 1566); type: functional
[18] = molecular target: T4, Beta-galactosidase (Escherichia coli, UniProt Q8VNN2); type: functional
[19] = molecular target: T1, Kappa-type opioid receptor; type: functional
[20] = A Cell Based Secondary Assay To Explore Cytotoxicity of Compounds that Sensitize Mycobacterium Tuberculosis to Beta-Lactam Antibiotics.; type: functional
[21] = Luminescence Cell-Based Dose Response HTS to Identify Inhibitors of 5'UTR Stem-Loop Driven Prion Protein mRNA Translation in H4 Neuroglioblastoma Cells. [Related pubchem assays: 1827 (Project Summary), 1813 (Primary HTS)]; type: functional
[22] = system: HEK293; assay: NOD1 signaling inhibitors, primary screen, cell-based, luminescence, uHTS (AID 1578); type: functional; details: Homo sapiens
[23] = molecular target: Nonstructural protein 1 (Influenza A virus, UniProt Q194T2); type: functional, Influenza A virus (A/California/07/2009(H1N1))
[24] = system: Streptococcus sp. 'group A'; assay: growth inhibition of control SK(-) GAS strain, dose response, counter-screen for streptokinase expression inhibitor project, luminescence, kanamycin, BacTiterGlo, confirmation (AID 1900); type: functional, organism-based
[25] = system: Vero; assay: cells; type: functional, cell-based, Chlorocebus sabaeus; details: Chlorocebus sabaeus, Vero
[26] = molecular target: T1, Kappa-type opioid receptor; type: functional; remark: listed apart in the source
[27] = system: HEK293; assay: NOD2 signaling inhibitors in MDP-stimulated cells, cell-based, uHTS, luminescence (AID 2001); type: functional; details: Homo sapiens
[28] = inhibitors of firefly luciferase expression or activity, dose response, H4 neuroglioma cells, luminescence (AID 1990); type: functional, cell-based
[29] = system: Streptococcus; assay: Group A Streptococcus viability loss, dose response, counter-screen for streptokinase expression inhibitor project, luminescence, BacTiterGlo (AID 1915); type: functional, organism-based;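 further: potency for reduction of bacterial viability or growth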
[30] = molecular target: T4, Beta-galactosidase; assay: Dose response counterscreen for EBI2 assay utilizing the enzyme, b-galactosidase.; type: functional
[31] = molecular target: T5, Ubiquitin-conjugating enzyme E2 N (Homo sapiens, UniProt P61088); type: functional
T5 sequence (P61088 whole entry): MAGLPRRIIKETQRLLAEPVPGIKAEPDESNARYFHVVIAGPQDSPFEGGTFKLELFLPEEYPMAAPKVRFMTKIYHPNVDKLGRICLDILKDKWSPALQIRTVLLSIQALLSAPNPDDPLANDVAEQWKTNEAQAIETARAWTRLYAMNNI

[32] = molecular target: Bcl-2-related protein A1 (Mus musculus, UniProt Q07440); type: functional;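 further: confirmatory dose–response counterscreen on Bfl-1, used to check hits from a UBC13 polyubiquitin inhibitor campaign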
[33] = molecular target: T5, Ubiquitin-conjugating enzyme E2 N; type: functional; remark: listed apart in the source

T1 sequence (P41145 whole entry): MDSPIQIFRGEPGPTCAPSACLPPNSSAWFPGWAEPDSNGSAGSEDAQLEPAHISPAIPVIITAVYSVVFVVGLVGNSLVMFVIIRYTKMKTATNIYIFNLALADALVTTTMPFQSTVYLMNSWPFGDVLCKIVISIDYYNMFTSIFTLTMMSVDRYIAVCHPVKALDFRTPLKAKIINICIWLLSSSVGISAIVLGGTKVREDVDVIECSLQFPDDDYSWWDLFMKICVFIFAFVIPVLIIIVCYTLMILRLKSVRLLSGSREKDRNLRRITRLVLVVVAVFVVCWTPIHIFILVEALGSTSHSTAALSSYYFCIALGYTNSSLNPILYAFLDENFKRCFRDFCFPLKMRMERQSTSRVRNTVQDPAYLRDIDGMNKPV
T3 sequence (P98170 whole entry): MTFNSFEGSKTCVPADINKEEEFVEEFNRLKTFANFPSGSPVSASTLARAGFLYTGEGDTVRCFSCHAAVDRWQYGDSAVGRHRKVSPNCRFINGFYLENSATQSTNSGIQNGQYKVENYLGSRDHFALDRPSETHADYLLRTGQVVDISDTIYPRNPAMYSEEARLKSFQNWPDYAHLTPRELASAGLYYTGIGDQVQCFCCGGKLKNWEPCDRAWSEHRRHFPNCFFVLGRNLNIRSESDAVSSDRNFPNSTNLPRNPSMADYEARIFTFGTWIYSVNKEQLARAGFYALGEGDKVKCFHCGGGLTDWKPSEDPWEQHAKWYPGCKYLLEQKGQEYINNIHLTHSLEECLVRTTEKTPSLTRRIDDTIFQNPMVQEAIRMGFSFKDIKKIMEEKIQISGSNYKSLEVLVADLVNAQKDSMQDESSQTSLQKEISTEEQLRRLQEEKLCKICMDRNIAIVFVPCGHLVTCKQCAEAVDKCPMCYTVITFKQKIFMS
T2 sequence (P49327 whole entry, the tested form may be a part): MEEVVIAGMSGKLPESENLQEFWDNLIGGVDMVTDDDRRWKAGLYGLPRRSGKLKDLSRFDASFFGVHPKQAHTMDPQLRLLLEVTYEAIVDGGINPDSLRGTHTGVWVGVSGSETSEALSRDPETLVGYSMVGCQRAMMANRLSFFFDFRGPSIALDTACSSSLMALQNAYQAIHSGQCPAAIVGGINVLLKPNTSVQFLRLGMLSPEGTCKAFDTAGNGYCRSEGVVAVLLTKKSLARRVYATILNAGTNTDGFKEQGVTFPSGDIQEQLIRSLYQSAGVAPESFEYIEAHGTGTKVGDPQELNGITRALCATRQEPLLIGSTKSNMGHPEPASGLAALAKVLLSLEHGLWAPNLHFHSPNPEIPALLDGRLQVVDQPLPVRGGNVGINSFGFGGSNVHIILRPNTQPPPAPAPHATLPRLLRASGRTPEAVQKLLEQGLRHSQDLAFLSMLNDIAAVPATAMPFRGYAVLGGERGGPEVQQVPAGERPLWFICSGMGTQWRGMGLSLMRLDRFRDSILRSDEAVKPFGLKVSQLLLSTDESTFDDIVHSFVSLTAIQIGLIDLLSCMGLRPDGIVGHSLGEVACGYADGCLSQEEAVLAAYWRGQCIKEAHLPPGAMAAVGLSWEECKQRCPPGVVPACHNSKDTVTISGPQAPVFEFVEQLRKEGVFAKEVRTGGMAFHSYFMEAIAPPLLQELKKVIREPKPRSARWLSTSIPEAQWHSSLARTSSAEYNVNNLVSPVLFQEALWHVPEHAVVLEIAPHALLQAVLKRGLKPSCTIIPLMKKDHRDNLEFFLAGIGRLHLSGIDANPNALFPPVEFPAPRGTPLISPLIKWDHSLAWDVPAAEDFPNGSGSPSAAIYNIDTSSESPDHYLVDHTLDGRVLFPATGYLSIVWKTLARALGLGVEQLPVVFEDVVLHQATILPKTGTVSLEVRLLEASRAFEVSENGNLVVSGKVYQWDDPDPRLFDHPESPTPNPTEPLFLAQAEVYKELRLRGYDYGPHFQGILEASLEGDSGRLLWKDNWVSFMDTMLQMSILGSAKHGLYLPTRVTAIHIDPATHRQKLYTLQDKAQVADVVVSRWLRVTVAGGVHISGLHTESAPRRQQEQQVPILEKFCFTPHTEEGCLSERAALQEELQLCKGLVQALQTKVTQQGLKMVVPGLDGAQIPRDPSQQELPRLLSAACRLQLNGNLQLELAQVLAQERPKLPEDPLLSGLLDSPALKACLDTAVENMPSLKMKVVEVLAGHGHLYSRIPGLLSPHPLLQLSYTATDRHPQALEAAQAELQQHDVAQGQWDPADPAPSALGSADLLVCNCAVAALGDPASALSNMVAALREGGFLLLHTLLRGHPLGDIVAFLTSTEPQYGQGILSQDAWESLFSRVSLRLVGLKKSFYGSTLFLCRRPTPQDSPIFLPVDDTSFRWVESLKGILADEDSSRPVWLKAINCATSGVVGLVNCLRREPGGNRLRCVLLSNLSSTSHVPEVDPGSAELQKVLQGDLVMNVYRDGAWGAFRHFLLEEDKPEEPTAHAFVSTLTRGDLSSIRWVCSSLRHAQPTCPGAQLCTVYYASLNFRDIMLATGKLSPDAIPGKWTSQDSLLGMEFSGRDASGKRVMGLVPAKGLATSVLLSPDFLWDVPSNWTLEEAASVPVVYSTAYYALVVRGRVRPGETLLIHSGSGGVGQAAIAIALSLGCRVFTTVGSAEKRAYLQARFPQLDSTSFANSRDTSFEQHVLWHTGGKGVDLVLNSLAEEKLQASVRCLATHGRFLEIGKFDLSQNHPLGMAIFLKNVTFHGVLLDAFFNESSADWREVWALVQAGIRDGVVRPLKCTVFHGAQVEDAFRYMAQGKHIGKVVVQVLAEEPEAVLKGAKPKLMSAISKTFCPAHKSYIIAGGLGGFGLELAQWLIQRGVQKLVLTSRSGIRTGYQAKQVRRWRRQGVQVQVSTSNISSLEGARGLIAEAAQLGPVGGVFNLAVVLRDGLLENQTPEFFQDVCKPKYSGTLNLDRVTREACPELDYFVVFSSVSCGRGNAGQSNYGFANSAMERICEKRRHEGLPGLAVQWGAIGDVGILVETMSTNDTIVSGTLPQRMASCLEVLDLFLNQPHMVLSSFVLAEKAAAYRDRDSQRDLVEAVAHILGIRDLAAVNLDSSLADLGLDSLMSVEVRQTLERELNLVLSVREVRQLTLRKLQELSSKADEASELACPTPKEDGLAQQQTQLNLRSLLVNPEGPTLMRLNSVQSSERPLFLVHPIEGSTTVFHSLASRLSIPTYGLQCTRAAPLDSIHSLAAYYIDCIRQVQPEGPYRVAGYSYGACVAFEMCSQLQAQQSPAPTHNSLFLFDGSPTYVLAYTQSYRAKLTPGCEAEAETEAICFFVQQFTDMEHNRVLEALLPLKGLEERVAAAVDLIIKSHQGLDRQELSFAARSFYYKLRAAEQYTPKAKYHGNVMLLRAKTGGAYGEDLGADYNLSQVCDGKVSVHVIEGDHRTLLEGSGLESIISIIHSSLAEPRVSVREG
Delta-type opioid receptor, sequence (P41143 whole entry, the tested form may be a part): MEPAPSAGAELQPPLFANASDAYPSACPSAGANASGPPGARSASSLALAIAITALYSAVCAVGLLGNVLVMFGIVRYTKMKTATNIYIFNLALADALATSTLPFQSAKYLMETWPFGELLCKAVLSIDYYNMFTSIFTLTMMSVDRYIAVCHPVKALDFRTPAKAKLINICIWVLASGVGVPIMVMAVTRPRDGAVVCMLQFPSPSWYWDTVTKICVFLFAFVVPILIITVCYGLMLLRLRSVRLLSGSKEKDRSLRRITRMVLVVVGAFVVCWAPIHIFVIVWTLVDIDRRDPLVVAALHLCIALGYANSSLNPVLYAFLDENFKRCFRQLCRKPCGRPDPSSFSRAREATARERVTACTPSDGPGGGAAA
Hexokinase, sequence (Q38C41 whole entry): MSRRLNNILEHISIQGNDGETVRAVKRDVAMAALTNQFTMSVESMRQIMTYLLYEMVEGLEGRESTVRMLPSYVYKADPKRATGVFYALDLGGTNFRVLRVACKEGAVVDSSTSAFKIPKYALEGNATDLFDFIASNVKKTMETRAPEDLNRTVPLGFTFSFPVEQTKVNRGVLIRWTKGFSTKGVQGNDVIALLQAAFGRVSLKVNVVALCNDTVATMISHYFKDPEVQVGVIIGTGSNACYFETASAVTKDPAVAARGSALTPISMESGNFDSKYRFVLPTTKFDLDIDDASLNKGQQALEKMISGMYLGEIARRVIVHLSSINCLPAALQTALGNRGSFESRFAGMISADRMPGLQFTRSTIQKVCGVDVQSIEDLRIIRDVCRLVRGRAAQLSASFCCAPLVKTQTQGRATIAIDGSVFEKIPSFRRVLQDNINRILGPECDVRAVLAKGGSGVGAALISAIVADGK
Mu-type opioid receptor, sequence (P35372 whole entry): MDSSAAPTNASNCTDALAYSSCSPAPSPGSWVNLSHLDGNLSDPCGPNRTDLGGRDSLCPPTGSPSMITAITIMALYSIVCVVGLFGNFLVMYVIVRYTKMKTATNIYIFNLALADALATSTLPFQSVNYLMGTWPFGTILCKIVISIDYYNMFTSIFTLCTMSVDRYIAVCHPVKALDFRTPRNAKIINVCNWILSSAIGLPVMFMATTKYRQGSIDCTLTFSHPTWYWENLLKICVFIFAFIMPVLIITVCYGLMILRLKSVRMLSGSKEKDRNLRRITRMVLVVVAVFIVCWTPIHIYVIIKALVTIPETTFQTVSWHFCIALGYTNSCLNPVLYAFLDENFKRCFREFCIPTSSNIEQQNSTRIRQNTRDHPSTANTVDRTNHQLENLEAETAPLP
Bcl-2-related protein A1, sequence (Q07440 whole entry): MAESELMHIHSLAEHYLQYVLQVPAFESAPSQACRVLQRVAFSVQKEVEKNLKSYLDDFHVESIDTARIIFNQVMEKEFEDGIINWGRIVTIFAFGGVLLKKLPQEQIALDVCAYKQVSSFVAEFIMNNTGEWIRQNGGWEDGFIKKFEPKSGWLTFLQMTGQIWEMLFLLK
Nonstructural protein 1, sequence (Q194T2 whole entry): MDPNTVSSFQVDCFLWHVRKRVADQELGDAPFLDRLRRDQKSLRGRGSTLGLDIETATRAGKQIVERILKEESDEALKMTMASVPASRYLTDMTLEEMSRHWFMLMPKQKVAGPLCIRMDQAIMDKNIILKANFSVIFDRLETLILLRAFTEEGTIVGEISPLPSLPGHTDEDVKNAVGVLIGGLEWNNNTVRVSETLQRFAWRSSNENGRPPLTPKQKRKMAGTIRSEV

O=C(Cn1sc2ccccc2c1=O)NC1CCCCC1
IC50 [1]: 9.35 µM (active)

COc1ccc(S(=O)(=O)NCc2ccc(C(=O)NCCN3Cc4ccccc4C3)cc2)cc1
IC50 [2]: > 32 µM (inactive)
IC50 [3]: > 20 µM (inactive)
IC50 [4]: > 32 µM (inactive)
IC50 [5]: > 32 µM (inactive)

CCS(=O)(=O)c1ccc(-c2csc(-c3ccc(Cl)cc3)n2)c(Cl)c1Cl
IC50 [6]: 2.71 µM (active)
IC50 [7]: 1.86 µM (active)
IC50 [8]: 5.51 µM (active)

CN(C)c1ccc(C(=O)Nc2cc(Cl)ccc2C(=O)O)cc1
IC50 [1]: > 25 µM (inactive)

COc1ccc(CCC(=O)OCC(=O)Nc2ccc(C)c(S(=O)(=O)N(C)C)c2)cc1
IC50 [9]: > 100 µM (not active)
IC50 [10]: > 100 µM (inactive)

O=C(O)C1C2C=CC(C2)C1C(=O)Nc1ccc(C(=O)N2CCCCC2)cc1 (stereo not given)
IC50 [9]: > 100 µM (not active)
IC50 [10]: > 100 µM (inactive)

C/C(=N\NC(=O)c1cc(Br)ccc1O)c1ccccn1
IC50 [11]: 17.6 µM (active)
IC50 [12]: > 20 µM (inactive)
EC50 [13]: 5.29 µM (active)
CC50 [14]: 3.81 µM (active)
IC50 [15]: > 20 µM (inactive)
AC50 [16]: 1.74 µM (active)
EC50 [17]: > 20 µM (inactive)
EC50 [18]: > 31.5 µM (inactive)
IC50 [19]: > 32 µM
CC50 [20]: 3.47 µM (active)
EC50 [21]: 10.3 µM (active)
EC50 [22]: > 20 µM (inactive)
IC50 [23]: 30.4 µM (active)
EC50 [24]: 430 nM (active)
IC50 [25]: > 25 µM (active)
IC50 [26]: 3.54 µM (active)
IC50 [27]: 6.47 µM (inactive)
EC50 [28]: 10.2 µM (inconclusive)
EC50 [29]: 3.7 µM (active)

Cc1ccc(CN(CCNC(=O)c2ccc(CNS(=O)(=O)c3cccc(C)c3)cc2)C(C)C)cc1
IC50 [2]: > 32 µM (inactive)
IC50 [3]: 1.83 µM (active)
IC50 [4]: 0.675 µM (active)
IC50 [5]: > 32 µM (inactive)

Cc1ccc(N(C(=O)c2snc(C(N)=O)c2N)C(C(=O)NC2CCCC2)c2ccc(C)o2)cc1 (stereo not given)
IC50 [30]: > 80 µM (inactive)
IC50 [31]: 10.4 µM (active)
IC50 [32]: > 20 µM (inactive)
IC50 [33]: 19.9 µM (active)
